According to paper PMC11259170, “Small-molecule probe for IBD risk variant GPR65 I231L alters cytokine signaling networks through positive allosteric modulation” (Science Advances, 2024):

Key:
[1] = system: human monocyte-derived dendritic cells (MDDCs); assay: Cytokine (TNF) production in human MDDCs, ELISA; assay type: cell-based; conditions: LPS 100 ng/ml, 3 hours
Method: Human blood samples were collected from healthy donors at the Blood Donor Center at Massachusetts General Hospital in compliance with all relevant ethical regulations and according to protocol 2018P001504 approved by the Mass General Brigham Institutional Review Board. Donors provided informed written consent. Human PBMCs were isolated by density gradient separation using Ficoll-Paque PLUS (VWR- GE Life Sciences, catalog no. 17144002), as previously described ([54]). Isolated PBMCs were incubated overnight in DMEM (10% FBS, 0.2% sodium bicarbonate, 1X Glutamax) at 37°C, 5% CO2. Human monocytes were isolated from an unpurified Buffy Coat using RosetteSep human monocyte enrichment cocktail (StemCell Technologies, 15068) and frozen same day in FBS with 10% DMSO. […]
Frozen human monocytes were thawed and allowed to recover overnight in DMEM [10% FBS, 1% p/s, IL-4 (50 ng/ml; Peprotech, 200-04), and GM-CSF (50 ng/ml; Peprotech, 300-03)] at 37°C and 5% CO2. […] Supernatants were collected and TNF production was measured by ELISA (Invitrogen, 88-7346-88). Plates were read on BMG Labtech PHERAstar FSX. […]

[2] = system: GPR65 WT mouse splenocytes; assay: cAMP detection in GPR65 WT mouse splenocytes; assay type: cell-based; conditions: 0 to 50 μM, pH 7.2, GPR65-dependent
Method: cAMP was measured in cells using the Lance Ultra cAMP Kit. Spleens were harvested from GPR65 WT and GPR65 KO mice, homogenized and passed through a 70-μm cell strainer into harvest buffer [PBS, 0.5% bovine serum albumin (BSA), and 2 mM EDTA]. Cells were then centrifuged, washed with harvest buffer, and resuspended in red blood cell lysis buffer for 10 min at RT. Cells were counted and resuspended in assay buffer (25-ml DMEM, 0.5-ml 7.5% sodium bicarbonate, and 333-μl 7.5% BSA stabilizer) and adjusted to pH 7.2 with 1 M NaOH. Splenocytes were added to a white opaque OptiPlate 384-well microplates at a density of 100,000 cells per well in 20 μl. Compounds were added into the wells using a pin transfer tool, and plates were incubated at 37°C, 5% CO2 for 40 min. Each detection reagent (5 μl) was added to the plate and incubated at RT in the dark for 1 hour. Eu-cAMP tracer and FRET emissions were read using a PerkinElmer EnVision Multimode plate reader (ENVISION21040010). Data analysis was performed using GraphPad Prism.

[3] = system: GPR65 KO HeLa cells + pLX empty vector; assay: cAMP detection, GPR65 KO HeLa + empty pLX vector (null control); assay type: cell-based, human; conditions: Homo sapiens, 0.5 h; HeLa GPR65 KO + pLX, pH 7.1, 30 min, normalized to DMSO and 100 μM forskolin
In short: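 CRISPR GPR65-KO HeLa cells, lentivirally reconstituted with hGPR65, mGPR65 or empty vector, were treated at 5000 cells/well in HBSS/Hepes with 0.5 mM IBMX at pH 7.1. Compounds were tested at 25 μM (primary screen) or 195 nM–100 μM (dose curves) for 30 min at RT. cAMP was read by Lance Ultra TR-FRET (665/615 nm) after 1 hour.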

[4] = system: murine macrophages and T cells; parameters: method as in PMID 22445881; conditions: murine macrophages and T cells ref 33; cited from earlier work

Structure (SMILES) | TNF secretion ([1]; 5 μM) | TNF secretion ([1]; 20 μM) | cAMP production in mouse splenocytes, compared [2] | EC50 [3] | cAMP production through the Gαs-coupled pathway [4]
Cc1ccc(NC(=O)c2cnn3c(O)cc(-c4ccc(COC(C)C)cc4)nc23)nc1 [BRD5075, O=C(NC1=NC=C(C)C=C1)C2=C3N(N=C2)C(O)=CC(C4=CC=C(COC(C)C)C=C4)=N3] | did not reach statistical significance | further TNF suppression | – | – | –
CN1N=C(SCc2ccc(Cl)cc2Cl)Sc2c1cnn(C)c2=O [BTB09089, reference compound] | – | – | induced higher cAMP production than BRD2813 | > 100 µM | increased cAMP production
